According to patent publication US5837728A, “9-cis retinoic acid esters and amides and uses thereof” (priority 1995, dated 1998):
“Also recorded” adds a separate entry of the source.

Assays:
[1] = tested on: sun-damaged, wrinkled, aged skin of the face and forearms; assay: Topical assay for antiaging and antiactinic effects (dermatoheliosis); assay type: in vivo, human (patients)
Description: Four subjects aged 49 to 73, three females and one male having significant,easily observe, sun-damaged, wrinkled, aged skin of the face and forearms are subjects of a study to determine the effect of topical application of 2-(9-cis-retinoyloxy)-4-methoxyacetophenone in the treatment of dermatoheliosis. The three females had moderately severe sun-damaged skin and wrinkles of the forearms, hands and face. The one person has extremely severe sun damage in these areas as well as multiple actinic keratoses. The four subjects are provided with and applied to their entire faces (omitting the eyelids) and dorsal surface of the right forearm, once daily for 12 to 16 weeks, 0.1% concentration of 2-(9-cis-retinoyloxy)-4-methoxyacetophenone in a hydrophilic cream vehicle. The left forearm of each patient is treated daily with a non-medicated moisturizer of the patients choice.
All subjects are evaluated every 4 weeks through the study for redness, peeling, skin surface texture and wrinkling. Biopsies (using a 4 mm punch) are taken from the dorsal surface of the right upper forearm at the beginning of the study and again from the same area at the end of the study. The biopsies are stained with H & E, Alcian Blue and collagen/elastic stains and compared by a qualified dematopathologist.

skin wound of rats = conditions: 1% for 3 days before and 0.1% after the wound; cited from earlier work
photoaged skin = conditions: cited from earlier work
[2] = 0.1% cream, once daily for 12 to 16 weeks
[3] = 0.1% retinoic acid hydrophilic cream, 16 weeks

Structure (SMILES)	Facial improvement of dermatoheliosis [1, 2]	Irritation during antiaging study [1, 2]	Forearm improvement in surface texture, dryness and fine wrinkling ([1]; 0.1% cream, once daily, within two months)	Biopsy differences before and after treatment ([1]; dorsal right forearm, 4 mm punch)	Acceleration of healing compared to control group (skin wound of rats) [%]	Effect on sun damaged skin (Weiss study) (photoaged skin; [3])	Irritancy (Weiss study) (photoaged skin; [3])	Patients who experienced dermatitis (photoaged skin; Weiss et al.) [%]	Improvement of photoaging of the skin (photoaged skin; cream containing 0.1% tretinoin, daily topical)	Redness, peeling, stinging, burning and dryness (photoaged skin; topical tretinoin therapy)	Subjects with dermatitis severe enough to require topical steroids (photoaged skin; topical tretinoin therapy)	Subjects withdrawn due to severity of dermatitis (photoaged skin; topical tretinoin therapy)
COc1ccc(C(=O)COC(=O)/C=C(C)/C=C/C=C(C)\C=C\C2=C(C)CCCC2(C)C)cc1 [Compound 2, 2-(9-cis-retinoyloxy)-4'-methoxyacetophenone]	all show an improvement in their dermatoheliosis; also recorded: Two of the four patients show very significant improvement in facial smoothness, dryness and fine wrinkling; also recorded: Moderate improvement of these parameters are observed in the other two patients	No significant irritation is experienced by any patient; also recorded: Very slight pinkness and a feeling of slight tightness in facial skin develops in two patients	three show improvement in surface texture (smoothness), surface dryness and fine wrinkling within two months	no significant differences in before treatment and after treatment biopsies								
CC1=C(/C=C/C(C)=C/C=C/C(C)=C/C(=O)O)C(C)(C)CCC1 [all-trans-retinoic acid, reference compound]					18	some positive effects on the surface texture and wrinkling of sun damaged facial skin, and on the histology of the epidermal and stratum corneum layers of dorsal forearm skin	moderately severe irritancy level	92	could be improved within a 16-week period	consistently experienced by nearly all subjects	Eleven of fifteen subjects	Three of fifteen
